Activity calls are given as the source filed them. The calls are words filed in the database; no cut-off is given here.
What was measured:
[1] = test system: Mus musculus; assay: Antidepressant activity in restraint-stressed C57BL/6J mouse model assessed as reduction in immobility time at 20 mg/kg, ip measured at 14 mins relative to control (Rvb= 569.6 +/- 27.6 sec); assay type: functional
[2] = biological target: Histone deacetylase 1 (Homo sapiens, UniProt Q13547); assay: Inhibition of human HDAC1 expressed in human HEK-293T cells using fluorescent peptide RHKKAc as substrate preincubated for 10 mins followed by substrate addition and measured after 1 hr by fluorogenic assay
[3] = biological target: T1, Protein deacetylase HDAC6 (Mus musculus, UniProt Q9Z2V5); assay: Inhibition of mouse HDAC6 expressed in human HEK-293T cells using fluorescent peptide Ac-KGLGK(Ac)-MCA as substrate preincubated for 10 mins followed by substrate addition and measured after 1 hr by fluorogenic assay; assay type: cell-based
T1 sequence (Q9Z2V5 whole entry): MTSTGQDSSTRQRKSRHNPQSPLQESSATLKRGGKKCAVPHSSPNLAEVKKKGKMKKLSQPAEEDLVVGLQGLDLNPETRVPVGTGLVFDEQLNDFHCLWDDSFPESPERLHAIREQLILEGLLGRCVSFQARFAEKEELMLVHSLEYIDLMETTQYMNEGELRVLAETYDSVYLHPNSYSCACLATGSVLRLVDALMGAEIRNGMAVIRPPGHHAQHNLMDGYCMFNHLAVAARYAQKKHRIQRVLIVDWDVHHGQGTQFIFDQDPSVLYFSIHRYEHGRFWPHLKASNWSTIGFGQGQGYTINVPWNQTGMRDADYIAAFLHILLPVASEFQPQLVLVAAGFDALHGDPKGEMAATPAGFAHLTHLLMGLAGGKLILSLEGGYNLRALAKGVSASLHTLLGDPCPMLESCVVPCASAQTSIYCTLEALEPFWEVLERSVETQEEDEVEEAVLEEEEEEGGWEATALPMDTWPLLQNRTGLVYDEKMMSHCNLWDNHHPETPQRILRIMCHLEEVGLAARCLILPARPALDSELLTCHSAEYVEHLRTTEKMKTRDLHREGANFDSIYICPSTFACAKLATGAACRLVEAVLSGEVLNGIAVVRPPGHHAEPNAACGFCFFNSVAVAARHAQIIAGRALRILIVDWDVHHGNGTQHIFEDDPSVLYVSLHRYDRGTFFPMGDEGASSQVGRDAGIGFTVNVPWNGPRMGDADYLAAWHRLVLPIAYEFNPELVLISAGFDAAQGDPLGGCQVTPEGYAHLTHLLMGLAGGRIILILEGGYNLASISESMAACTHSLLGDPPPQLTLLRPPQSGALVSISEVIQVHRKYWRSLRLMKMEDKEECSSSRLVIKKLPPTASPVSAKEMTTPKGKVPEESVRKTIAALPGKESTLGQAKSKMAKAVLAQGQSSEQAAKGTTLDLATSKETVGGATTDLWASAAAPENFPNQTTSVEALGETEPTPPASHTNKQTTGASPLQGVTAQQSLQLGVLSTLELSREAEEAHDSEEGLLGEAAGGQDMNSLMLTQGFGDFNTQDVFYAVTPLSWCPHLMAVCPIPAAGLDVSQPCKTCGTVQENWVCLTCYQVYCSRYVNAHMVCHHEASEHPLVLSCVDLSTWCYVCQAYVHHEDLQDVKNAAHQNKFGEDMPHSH

[4] = species: Homo sapiens; assay: Selectivity ratio of IC50 for inhibition of human HDAC1 expressed in human HEK-293T cells using fluorescent peptide RHKKAc as substrate to IC50 for inhibition of mouse HDAC6 expressed in human HEK-293T cells using fluorescent peptide Ac-KGLGK(Ac)-MCA as substrate; assay type: cell-based
[5] = biological target: Histone deacetylase 4 (Homo sapiens, UniProt P56524); assay: Inhibition of human HDAC4 using fluorescent peptide Boc-Lys(trifluoroacetyl)-AMC as substrate preincubated for 10 mins followed by substrate addition and measured after 30 mins by fluorogenic assay
[6] = species: Homo sapiens; assay: Selectivity ratio of IC50 for inhibition of human HDAC4 using fluorescent peptide Boc-Lys(trifluoroacetyl)-AMC as substrate to IC50 for inhibition of mouse HDAC6 expressed in human HEK-293T cells using fluorescent peptide Ac-KGLGK(Ac)-MCA as substrate
[7] = Metabolic stability in human liver microsomes assessed as parent compound remaining at 500 uM measured at 60 mins by LC-MS/MS analysis; assay type: ADME, Microsome; conditions: read-out: Stability
[8] = Metabolic stability in mouse liver microsomes assessed as parent compound remaining at 500 uM measured at 60 mins by LC-MS/MS analysis; assay type: ADME, Microsome; conditions: read-out: Stability
[9] = biological target: Voltage-gated inwardly rectifying potassium channel KCNH2 (Homo sapiens, UniProt Q12809); assay: Inhibition of human ERG potassium channel by fluorescence polarization assay; assay type: toxicity
[10] = test system: Mus musculus; assay: Antidepressant activity in restraint-stressed C57BL/6J mouse model assessed as increase in acetylated alpha tubulin level in brain at 10 mg/kg, ip measured after 15 mins; assay type: functional, organism-based
[11] = Brain to plasma ratio in C57BL/6J mouse at 10 mg/kg, iv measured after 45 mins by LC-MS/MS analysis; assay type: ADME, organism-based; conditions: brain and plasma, read-out: BPR
[12] = test system: Mus musculus; assay: Antidepressant activity in restraint-stressed C57BL/6J mouse model assessed as reduction in immobility time at 10 mg/kg, ip measured at 14 mins relative to control (Rvb= 569.6 +/- 27.6 sec); assay type: functional
[13] = Lipophilicity, logD of compound at pH 7.4 measured after 20 mins by UPLC analysis; assay type: physicochemical; conditions: buffer
[14] = Apparent permeability in human Caco-2 cells incubated for 2 hrs by LC-MS/MS analysis; assay type: ADME, cell-based

Histone deacetylase 4, sequence (P56524 whole entry): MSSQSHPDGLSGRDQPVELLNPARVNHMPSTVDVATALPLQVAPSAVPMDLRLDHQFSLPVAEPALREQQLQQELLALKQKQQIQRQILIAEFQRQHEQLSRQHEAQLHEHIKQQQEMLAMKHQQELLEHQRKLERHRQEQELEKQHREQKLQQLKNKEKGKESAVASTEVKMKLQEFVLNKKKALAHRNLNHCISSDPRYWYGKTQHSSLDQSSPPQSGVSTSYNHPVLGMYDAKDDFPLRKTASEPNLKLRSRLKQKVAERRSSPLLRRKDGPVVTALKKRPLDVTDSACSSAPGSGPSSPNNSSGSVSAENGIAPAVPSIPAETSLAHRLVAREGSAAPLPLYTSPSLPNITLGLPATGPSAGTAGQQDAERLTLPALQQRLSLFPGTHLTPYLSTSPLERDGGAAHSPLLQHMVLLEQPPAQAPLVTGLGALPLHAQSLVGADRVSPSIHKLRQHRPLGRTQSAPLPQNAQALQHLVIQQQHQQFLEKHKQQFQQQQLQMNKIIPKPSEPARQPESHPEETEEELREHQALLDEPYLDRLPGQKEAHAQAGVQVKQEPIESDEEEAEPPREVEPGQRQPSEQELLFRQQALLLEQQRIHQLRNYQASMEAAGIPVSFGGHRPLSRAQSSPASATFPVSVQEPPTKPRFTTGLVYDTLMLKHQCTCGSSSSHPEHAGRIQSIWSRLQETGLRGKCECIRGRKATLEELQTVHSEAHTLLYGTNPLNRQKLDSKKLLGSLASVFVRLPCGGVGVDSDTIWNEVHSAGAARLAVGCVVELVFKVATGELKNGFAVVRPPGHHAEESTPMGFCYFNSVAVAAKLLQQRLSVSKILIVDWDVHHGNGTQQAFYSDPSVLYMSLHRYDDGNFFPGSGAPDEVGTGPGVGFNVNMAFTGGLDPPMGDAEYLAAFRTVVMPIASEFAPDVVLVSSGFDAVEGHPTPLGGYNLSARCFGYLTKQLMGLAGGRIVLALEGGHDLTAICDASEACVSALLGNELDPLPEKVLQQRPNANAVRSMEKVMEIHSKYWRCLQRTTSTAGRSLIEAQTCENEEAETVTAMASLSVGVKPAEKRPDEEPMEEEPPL
Histone deacetylase 1, sequence (Q13547 whole entry): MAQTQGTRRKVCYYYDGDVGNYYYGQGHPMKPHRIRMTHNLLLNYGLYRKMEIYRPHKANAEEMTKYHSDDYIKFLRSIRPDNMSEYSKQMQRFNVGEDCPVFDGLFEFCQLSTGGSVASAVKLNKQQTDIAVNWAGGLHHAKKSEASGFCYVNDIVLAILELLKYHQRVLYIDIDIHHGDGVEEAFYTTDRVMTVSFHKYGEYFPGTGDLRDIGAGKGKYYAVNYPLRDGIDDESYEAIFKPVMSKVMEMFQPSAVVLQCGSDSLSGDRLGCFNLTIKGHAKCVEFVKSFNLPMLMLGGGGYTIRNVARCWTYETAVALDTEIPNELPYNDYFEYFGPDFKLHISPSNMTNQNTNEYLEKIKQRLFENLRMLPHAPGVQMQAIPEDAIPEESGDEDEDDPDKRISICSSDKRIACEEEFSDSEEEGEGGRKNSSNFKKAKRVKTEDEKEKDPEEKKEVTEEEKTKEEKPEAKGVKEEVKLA
Voltage-gated inwardly rectifying potassium channel KCNH2, sequence (Q12809 whole entry): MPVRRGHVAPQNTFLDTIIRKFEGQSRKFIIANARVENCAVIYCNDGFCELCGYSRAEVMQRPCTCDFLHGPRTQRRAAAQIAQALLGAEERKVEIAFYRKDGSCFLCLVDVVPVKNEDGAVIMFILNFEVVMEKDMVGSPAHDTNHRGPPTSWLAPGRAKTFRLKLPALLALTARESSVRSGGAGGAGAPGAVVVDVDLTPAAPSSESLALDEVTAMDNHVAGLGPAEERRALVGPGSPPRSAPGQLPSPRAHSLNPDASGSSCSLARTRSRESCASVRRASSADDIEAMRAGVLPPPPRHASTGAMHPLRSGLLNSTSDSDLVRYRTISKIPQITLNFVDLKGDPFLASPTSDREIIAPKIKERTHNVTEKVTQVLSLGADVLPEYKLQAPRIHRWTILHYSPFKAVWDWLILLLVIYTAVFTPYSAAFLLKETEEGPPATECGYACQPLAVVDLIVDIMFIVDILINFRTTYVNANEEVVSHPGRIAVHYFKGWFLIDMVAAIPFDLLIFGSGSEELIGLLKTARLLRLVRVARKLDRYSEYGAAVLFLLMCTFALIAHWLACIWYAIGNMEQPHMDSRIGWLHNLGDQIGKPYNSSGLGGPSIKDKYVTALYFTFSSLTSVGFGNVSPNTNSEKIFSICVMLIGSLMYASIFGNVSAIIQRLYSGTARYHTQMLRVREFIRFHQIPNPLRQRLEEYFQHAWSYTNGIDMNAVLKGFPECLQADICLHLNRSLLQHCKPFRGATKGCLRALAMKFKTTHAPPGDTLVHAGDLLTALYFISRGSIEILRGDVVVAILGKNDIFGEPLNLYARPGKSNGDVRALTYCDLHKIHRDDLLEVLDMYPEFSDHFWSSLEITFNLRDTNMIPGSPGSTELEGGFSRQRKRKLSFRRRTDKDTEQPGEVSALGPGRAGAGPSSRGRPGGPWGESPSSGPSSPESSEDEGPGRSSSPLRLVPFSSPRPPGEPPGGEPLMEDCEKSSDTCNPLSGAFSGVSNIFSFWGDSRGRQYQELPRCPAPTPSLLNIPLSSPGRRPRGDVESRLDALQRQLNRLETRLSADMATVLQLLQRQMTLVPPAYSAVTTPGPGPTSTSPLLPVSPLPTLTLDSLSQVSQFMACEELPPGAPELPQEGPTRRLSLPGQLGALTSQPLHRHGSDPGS

Row | Compound | Time [1] | IC50 [2] | IC50 [3] | Ratio IC50 [4] | IC50 [5] | Ratio IC50 [6] | remaining at 1 h [7] | remaining at 1 h, 500 µM [8] | IC50 [9] | Activity [10] | Kp at 0.75 h [11] | Time [12] | logD at 20 min [13] | Papp at 2 h [14]
1 | CNCCC(Oc1ccc(C(F)(F)F)cc1)c1ccccc1 (stereo not given) [FLUOXETINE] | 405.5 s | – | – | – | – | – | – | – | – | – | – | – | – | –
2 | O=C(NO)c1cccc(CN2CCN(C(c3ccccc3)c3ccccc3)CC2)c1 | – | 46.6 µM | 6600 nM | 7 | > 100 µM | – | – | – | – | – | – | – | – | –
3 | O=C(NO)c1ccc(CCCN2CCN(C(c3ccccc3)c3ccccc3)CC2)cc1 | – | 3.8 µM | 580 nM | 7 | 1.9 µM | 3 | – | – | – | – | – | – | – | –
4 | O=C(NO)c1ccccc1CN1CCN(C(c2ccccc2)c2ccccc2)CC1 | – | > 100 µM | > 100000 nM | – | > 100 µM | – | – | – | – | – | – | – | – | –
5 | CC(c1ccccc1)N1CCN(Cc2ccc(C(=O)NO)cc2)CC1 (stereo not given) | – | 6.7 µM | 260 nM | 26 | 12.3 µM | 47 | 63% | 67% | 106 µM | Active | 6.73 | 453 s | 2.1 | 10.9 ×10⁻⁶ cm/s
6 | O=C(NO)c1ccc(CCCCN2CCN(C(c3ccccc3)c3ccccc3)CC2)cc1 | – | 5.5 µM | 430 nM | 13 | 5 µM | 12 | – | – | – | – | – | – | – | –
7 | O=C(NO)c1ccc(CCN2CCN(C(c3ccccc3)c3ccccc3)CC2)cc1 | – | 4.8 µM | 330 nM | 15 | 3 µM | 9 | – | – | – | – | – | – | – | –
8 | O=C(NO)c1ccc(CN2CCN(C(c3ccccc3)c3ccccc3)CC2)cc1 | – | 4.4 µM | 110 nM | 40 | 4.4 µM | 40 | 62% | 1% | 0.66 µM | – | 7.91 | 410.7 s | 3.8 | 17.1 ×10⁻⁶ cm/s
9 | O=C(NO)c1ccc(CN2CCN(Cc3ccccc3)CC2)cc1 | – | 10.4 µM | 260 nM | 40 | 9.2 µM | 35 | 73% | 80% | 73.1 µM | – | 4.37 | 507.3 s | 1.9 | 11.6 ×10⁻⁶ cm/s
